Measured values taken from ChEMBL document CHEMBL3826929, “Discovery and Preclinical Evaluation of BMS-711939, an Oxybenzylglycine Based PPARα Selective Agonist” (ACS Med Chem Lett, 2016).
≈ marks a conversion by molar mass, not a printed value.

Tests used:
Syrian golden hamster [1] = experiment: Decrease in plasma LDL cholesterol level in high fat-diet fed syrian golden hamster model of dyslipidemia at 1 mg/kg administered qd through oral gavage measured after 21 days by FPLC analysis relative to control; assay type: functional, Mesocricetus auratus; parameters: scale not given: the % may be the effect or the level left
[2] = AUC (0 to 8 hrs) in Sprague-Dawley rat at 8 mg/kg, po; assay type: ADME, organism-based; parameters: time < 8 hr, dose 8 mg/kg, route oral; conditions: in vivo
Mus musculus [3] = experiment: Increase in ApoA1 level in transgenic mouse expressing human ApoA1 at 3 mg/kg administered qd through oral gavage measured after 10 days relative to vehicle-treated control; assay type: functional
[4] = Cmax in Sprague-Dawley rat at 8 mg/kg, po; assay type: ADME, organism-based; parameters: dose 8 mg/kg, route oral; conditions: in vivo
[5] = molecular target: Voltage-gated inwardly rectifying potassium channel KCNH2 (Homo sapiens, UniProt Q12809); experiment: Inhibition of human ERG by flux-based assay
Sequence of Voltage-gated inwardly rectifying potassium channel KCNH2 (Q12809 whole entry): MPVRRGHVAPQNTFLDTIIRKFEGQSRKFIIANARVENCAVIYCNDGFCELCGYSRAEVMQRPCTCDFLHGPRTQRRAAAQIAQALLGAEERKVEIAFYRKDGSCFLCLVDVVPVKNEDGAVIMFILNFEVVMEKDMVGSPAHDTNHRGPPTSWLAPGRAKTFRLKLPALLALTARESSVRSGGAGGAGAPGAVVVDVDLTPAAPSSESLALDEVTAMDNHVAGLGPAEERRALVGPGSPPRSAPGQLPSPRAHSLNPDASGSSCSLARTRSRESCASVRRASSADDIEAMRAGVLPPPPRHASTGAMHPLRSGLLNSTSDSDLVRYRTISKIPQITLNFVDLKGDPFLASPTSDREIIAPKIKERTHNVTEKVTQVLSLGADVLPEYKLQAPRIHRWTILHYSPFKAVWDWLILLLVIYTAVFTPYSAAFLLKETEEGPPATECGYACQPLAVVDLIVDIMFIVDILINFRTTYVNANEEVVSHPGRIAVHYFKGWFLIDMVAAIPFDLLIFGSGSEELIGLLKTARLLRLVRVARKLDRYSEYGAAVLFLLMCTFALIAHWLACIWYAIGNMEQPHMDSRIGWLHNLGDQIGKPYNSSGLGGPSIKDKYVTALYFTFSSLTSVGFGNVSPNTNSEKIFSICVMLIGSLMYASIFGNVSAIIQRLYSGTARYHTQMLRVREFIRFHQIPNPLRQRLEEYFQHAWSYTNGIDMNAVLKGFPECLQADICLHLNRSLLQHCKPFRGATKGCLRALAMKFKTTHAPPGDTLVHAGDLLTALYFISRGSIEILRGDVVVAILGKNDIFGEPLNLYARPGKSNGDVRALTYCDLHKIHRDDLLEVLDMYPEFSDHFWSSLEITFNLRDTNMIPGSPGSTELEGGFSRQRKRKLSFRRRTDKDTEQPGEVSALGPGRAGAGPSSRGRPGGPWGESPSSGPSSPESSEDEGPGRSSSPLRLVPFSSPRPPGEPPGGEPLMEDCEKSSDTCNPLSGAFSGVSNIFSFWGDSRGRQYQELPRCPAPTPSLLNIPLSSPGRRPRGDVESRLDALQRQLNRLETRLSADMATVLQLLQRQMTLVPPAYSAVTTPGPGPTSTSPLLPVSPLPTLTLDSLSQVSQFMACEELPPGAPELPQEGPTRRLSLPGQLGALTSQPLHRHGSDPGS

[6] = Protein binding in human plasma; assay type: ADME, cell-free; conditions: read-out: PPB (converted)
[7] = Tmax in dog at 2 mg/kg, po; assay type: ADME, organism-based, Canis lupus familiaris; conditions: in vivo
[8] = Aqueous solubility of the compound at pH 7.2; assay type: physicochemical; conditions: buffer
[9] = AUC (0 to 8 hrs) in Balb/c mouse at 10 mg/kg, po; assay type: ADME, organism-based; parameters: dose 10 mg/kg, time < 8 hr, route oral; conditions: in vivo
Syrian golden hamster [10] = experiment: Decrease in liver triglyceride level in high fat-diet fed syrian golden hamster model of dyslipidemia administered qd through oral gavage measured after 21 days by FPLC analysis; assay type: functional, organism-based; conditions: Mesocricetus auratus
[11] = Half life in dog at 1 mg/kg, iv; assay type: ADME, organism-based, Canis lupus familiaris; conditions: in vivo
[12] = Volume of distribution at steady state in dog at 1 mg/kg, iv; assay type: ADME, organism-based, Canis lupus familiaris; conditions: in vivo, read-out: Vdss
[13] = molecular target: Peroxisome proliferator-activated receptor delta (Homo sapiens) (UniProt Q03181); experiment: Agonist activity against human PPAR-delta by transactivation assay relative to standard compound
Sequence of Peroxisome proliferator-activated receptor delta (Homo sapiens) (Q03181 whole entry): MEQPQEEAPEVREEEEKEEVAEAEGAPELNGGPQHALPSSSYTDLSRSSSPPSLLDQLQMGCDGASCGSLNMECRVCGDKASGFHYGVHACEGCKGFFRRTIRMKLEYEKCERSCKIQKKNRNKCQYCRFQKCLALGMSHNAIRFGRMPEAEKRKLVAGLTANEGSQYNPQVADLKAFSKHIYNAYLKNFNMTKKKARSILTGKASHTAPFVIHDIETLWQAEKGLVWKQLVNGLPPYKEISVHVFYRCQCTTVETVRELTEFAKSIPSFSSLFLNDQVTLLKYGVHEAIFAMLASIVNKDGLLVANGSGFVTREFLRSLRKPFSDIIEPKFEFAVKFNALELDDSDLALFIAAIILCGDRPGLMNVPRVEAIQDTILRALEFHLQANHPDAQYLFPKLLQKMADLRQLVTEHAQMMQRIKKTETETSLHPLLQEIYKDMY

Syrian golden hamster [14] = experiment: Decrease in plasma triglyceride level in high fat-diet fed syrian golden hamster model of dyslipidemia at 3 mg/kg administered qd through oral gavage measured after 21 days by FPLC analysis relative to control; assay type: functional, Mesocricetus auratus; parameters: scale not given: the % may be the effect or the level left
[15] = molecular target: T1, Peroxisome proliferator-activated receptor alpha (Homo sapiens) (UniProt Q07869); experiment: Intrinsic activity at PPAR-alpha (unknown origin) relative to fenofibric acid
T1 sequence (whole entry): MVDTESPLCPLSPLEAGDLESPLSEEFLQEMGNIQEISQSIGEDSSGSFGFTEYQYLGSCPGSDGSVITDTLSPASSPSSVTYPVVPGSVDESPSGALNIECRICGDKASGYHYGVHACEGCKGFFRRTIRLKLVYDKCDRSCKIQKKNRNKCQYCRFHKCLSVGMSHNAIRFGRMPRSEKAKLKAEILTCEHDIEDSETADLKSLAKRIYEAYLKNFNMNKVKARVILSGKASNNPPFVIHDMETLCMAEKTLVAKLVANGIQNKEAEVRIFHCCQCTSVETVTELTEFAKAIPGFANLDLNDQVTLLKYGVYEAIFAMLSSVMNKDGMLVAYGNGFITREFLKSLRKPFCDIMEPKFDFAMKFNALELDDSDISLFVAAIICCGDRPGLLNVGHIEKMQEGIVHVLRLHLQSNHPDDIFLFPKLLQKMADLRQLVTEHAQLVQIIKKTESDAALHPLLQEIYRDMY

[16] = Protein binding in rat plasma; assay type: ADME, cell-free; conditions: read-out: PPB (converted)
[17] = Plasma clearance in Balb/c mouse at 5 mg/kg, iv; assay type: ADME, organism-based
hERG (KCNH2) = hERG (KCNH2) (Homo sapiens, UniProt Q12809); experiment: Inhibition of human ERG at 30 uM by patch-clamp method
Sequence of hERG (KCNH2) (Q12809 whole entry): as the sequence (Q12809 whole entry) above

Mus musculus [18] = experiment: Decrease in triglyceride level in transgenic mouse expressing human ApoA1 at 50 mg/kg administered qd through oral gavage measured after 10 days relative to vehicle control; assay type: functional; parameters: scale not given: the % may be the effect or the level left
[19] = Cardiovascular toxicity in purkinje fiber (unknown origin) assessed as change in action potential duration at 90% repolarization at 30 uM
Rhesus monkey [20] = experiment: Cardiovascular toxicity in monkey assessed as change in electrocardiographic effect up to 20 mg/kg administered as single dose by telemetry test; assay type: organism-based, Macaca mulatta; conditions: in vivo
Cytochrome P450 3A4 = Cytochrome P450 3A4 (Homo sapiens, UniProt P08684); experiment: Inhibition of CYP3A4 in human TC5 cells; assay type: ADME, cell-based
Sequence of Cytochrome P450 3A4 (P08684 whole entry): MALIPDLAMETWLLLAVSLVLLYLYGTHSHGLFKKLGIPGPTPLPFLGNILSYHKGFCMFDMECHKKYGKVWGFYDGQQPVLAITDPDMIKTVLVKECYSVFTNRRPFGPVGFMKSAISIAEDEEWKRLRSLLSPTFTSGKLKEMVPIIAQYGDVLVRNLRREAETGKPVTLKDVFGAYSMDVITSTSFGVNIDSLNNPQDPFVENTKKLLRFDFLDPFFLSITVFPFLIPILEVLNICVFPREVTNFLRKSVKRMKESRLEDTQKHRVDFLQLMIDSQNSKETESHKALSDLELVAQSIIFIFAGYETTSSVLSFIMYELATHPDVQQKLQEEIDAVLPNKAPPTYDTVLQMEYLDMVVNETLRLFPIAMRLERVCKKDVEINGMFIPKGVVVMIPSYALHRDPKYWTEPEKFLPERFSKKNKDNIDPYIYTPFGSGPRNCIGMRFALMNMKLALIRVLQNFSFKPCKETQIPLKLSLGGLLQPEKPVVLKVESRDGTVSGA

Retinoid X receptor = Retinoid X receptor (Homo sapiens, UniProt P28702+P48443+P19793); experiment: Agonist activity at human RXR by transactivation assay; assay type: protein assay
[21] = molecular target: Glucocorticoid receptor (Homo sapiens) (UniProt P04150); experiment: Agonist activity at human GR by transactivation assay relative to standard compound
Sequence of Glucocorticoid receptor (Homo sapiens) (P04150 whole entry): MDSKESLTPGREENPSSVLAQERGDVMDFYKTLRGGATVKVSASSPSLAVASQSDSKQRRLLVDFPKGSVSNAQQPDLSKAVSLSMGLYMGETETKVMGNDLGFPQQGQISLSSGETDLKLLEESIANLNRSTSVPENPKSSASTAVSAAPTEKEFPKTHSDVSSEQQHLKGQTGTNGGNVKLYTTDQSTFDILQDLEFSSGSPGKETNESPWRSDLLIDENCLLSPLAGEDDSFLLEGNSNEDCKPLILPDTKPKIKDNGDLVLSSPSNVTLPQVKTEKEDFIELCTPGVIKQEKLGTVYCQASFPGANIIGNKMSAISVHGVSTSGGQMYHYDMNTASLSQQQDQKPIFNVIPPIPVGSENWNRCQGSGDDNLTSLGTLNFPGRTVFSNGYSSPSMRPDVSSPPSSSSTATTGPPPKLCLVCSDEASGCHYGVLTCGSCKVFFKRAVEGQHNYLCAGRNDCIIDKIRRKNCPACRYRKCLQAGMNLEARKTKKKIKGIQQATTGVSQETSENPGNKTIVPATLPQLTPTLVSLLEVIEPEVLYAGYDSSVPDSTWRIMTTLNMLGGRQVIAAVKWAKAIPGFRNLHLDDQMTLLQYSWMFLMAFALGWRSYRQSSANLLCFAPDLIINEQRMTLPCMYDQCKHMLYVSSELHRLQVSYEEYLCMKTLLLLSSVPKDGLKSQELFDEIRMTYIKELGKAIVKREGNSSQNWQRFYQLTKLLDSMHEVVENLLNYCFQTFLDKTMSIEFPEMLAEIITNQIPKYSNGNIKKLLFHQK

Salmonella typhimurium [22] = experiment: Genotoxicity in Salmonella typhimurium TA100 up to 5000 ug by Ames test; assay type: toxicity, organism-based; conditions: salmonella enterica subsp. enterica serovar typhimurium
Mus musculus [23] = experiment: Increase in HDL cholesterol level in transgenic mouse expressing human ApoA1 at 50 mg/kg administered qd through oral gavage measured after 10 days relative to vehicle control; assay type: functional
[24] = Protein binding in mouse plasma; assay type: ADME, cell-free; conditions: read-out: PPB (converted)
Mus musculus [25] = experiment: Decrease in triglyceride level in transgenic mouse expressing human ApoA1 at 10 mg/kg administered qd through oral gavage measured after 10 days relative to vehicle control; assay type: functional; parameters: scale not given: the % may be the effect or the level left
Rhesus monkey [26] = experiment: Cardiovascular toxicity in monkey assessed as change in hemodynamic effect up to 20 mg/kg administered as single dose by telemetry test; assay type: organism-based, Macaca mulatta; conditions: in vivo
Cytochrome P450 2D6 [27] = molecular target: T2, Cytochrome P450 2D6 (Homo sapiens, UniProt P10635); experiment: Inhibition of CYP2D6 (unknown origin); assay type: ADME
T2 sequence (P10635 whole entry): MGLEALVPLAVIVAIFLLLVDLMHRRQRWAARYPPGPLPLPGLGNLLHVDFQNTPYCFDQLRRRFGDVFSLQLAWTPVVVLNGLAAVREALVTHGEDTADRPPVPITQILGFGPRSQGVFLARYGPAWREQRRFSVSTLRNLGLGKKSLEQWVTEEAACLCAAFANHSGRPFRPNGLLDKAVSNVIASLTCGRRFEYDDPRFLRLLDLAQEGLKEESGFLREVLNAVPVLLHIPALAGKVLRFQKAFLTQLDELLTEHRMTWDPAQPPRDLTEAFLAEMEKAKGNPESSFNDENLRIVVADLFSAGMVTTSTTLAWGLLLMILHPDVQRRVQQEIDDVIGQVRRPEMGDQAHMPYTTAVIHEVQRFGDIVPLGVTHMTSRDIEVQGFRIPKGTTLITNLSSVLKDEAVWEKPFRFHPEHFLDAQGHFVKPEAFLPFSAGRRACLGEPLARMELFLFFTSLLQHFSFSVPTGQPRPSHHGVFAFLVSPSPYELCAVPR

[28] = Half life in cynomolgus monkey at 1 mg/kg, iv; assay type: ADME, organism-based, Macaca fascicularis; conditions: in vivo
Cytochrome P450 2C9 = Cytochrome P450 2C9 (Homo sapiens, UniProt P11712); experiment: Inhibition of CYP2C9 in human TC5 cells; assay type: ADME, cell-based
Sequence of Cytochrome P450 2C9 (P11712 whole entry): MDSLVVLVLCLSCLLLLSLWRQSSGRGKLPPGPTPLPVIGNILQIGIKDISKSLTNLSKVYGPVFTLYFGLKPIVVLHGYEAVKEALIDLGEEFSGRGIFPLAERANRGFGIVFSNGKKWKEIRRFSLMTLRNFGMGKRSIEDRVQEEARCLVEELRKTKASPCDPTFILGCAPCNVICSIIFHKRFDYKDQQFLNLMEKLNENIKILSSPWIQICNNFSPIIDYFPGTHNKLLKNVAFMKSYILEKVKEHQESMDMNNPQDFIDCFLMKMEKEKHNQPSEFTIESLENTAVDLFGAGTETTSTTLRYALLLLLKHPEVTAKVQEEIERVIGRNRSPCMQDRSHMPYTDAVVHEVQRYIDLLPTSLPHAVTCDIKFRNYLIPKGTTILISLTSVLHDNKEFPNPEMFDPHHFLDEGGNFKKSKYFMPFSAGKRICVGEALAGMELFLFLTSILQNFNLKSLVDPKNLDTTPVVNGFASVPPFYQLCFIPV

[29] = Volume of distribution at steady state in cynomolgus monkey at 1 mg/kg, iv; assay type: ADME, organism-based, Macaca fascicularis; conditions: in vivo, read-out: Vdss
Cytochrome P450 2C19 = Cytochrome P450 2C19 (Homo sapiens, UniProt P33261); experiment: Inhibition of CYP2C19 (unknown origin); assay type: ADME
[30] = Oral bioavailability in dog at 2 mg/kg; assay type: ADME, organism-based, Canis lupus familiaris; conditions: in vivo
Mus musculus [31] = experiment: Increase in ApoA1 level in transgenic mouse expressing human ApoA1 at 50 mg/kg administered qd through oral gavage measured after 10 days relative to vehicle-treated control; assay type: functional
Liver X receptor = Liver X receptor (Homo sapiens, UniProt Q13133+P55055); experiment: Agonist activity at human LXR by transactivation assay; assay type: protein assay
Salmonella typhimurium [32] = experiment: Genotoxicity in Salmonella typhimurium TA98 up to 5000 ug by Ames test; assay type: toxicity, organism-based; conditions: salmonella enterica subsp. enterica serovar typhimurium
Syrian golden hamster [33] = experiment: Decrease in liver cholesterol level in high fat-diet fed syrian golden hamster model of dyslipidemia at 10 mg/kg administered qd through oral gavage measured after 21 days by FPLC analysis relative to control; assay type: functional, Mesocricetus auratus; parameters: scale not given: the % may be the effect or the level left
Cytochrome P450 2D6 [34] = molecular target: T2, Cytochrome P450 2D6; experiment: Inhibition of CYP2D6 in human TC5 cells; assay type: ADME, cell-based
Glucocorticoid receptor = Glucocorticoid receptor (Homo sapiens, UniProt P04150); experiment: Agonist activity at human GR by transactivation assay
Sequence of Glucocorticoid receptor (P04150 whole entry): as the sequence (P04150 whole entry) above

Homo sapiens = species: Homo sapiens; experiment: Inhibition of sodium channel (unknown origin) assessed as channel block at 10 uM and 4 Hz by electrophysiological method
[35] = Volume of distribution at steady state in Balb/c mouse at 5 mg/kg, iv; assay type: ADME, organism-based; conditions: in vivo, read-out: Vdss

AUC(0-t) at 8 h [2]: 32 µM·h
Cmax [4]: 14.9 µM
fraction unbound [6]: 0.003
Tmax [7]: 0.8 h
solubility [8]: 367 µg/mL (≈ 793 µM)
AUC(0-t) at 8 h [9]: 17 µM·h
half-life [11]: 5.5 h
Vd [12]: 2.1 L/kg
Efficacy [13]: < 15%
Intrinsic activity [15]: > 50%
fraction unbound [16]: 0.004
clearance [17]: 13.8 mL/min/kg
EC50 (Retinoid X receptor): > 25 µM
Efficacy [21]: < 15%
fraction unbound [24]: 0.002
IC50 (Cytochrome P450 2D6 [27]): > 40 µM
half-life [28]: 26.3 h
Vd [29]: 3.9 L/kg
IC50 (Cytochrome P450 2C19): > 40 µM
bioavailability [30]: 59%
EC50 (Liver X receptor): > 25 µM
EC50 (Glucocorticoid receptor): > 25 µM
inhibition (Homo sapiens): 14%
Vd [35]: 0.6 L/kg
SMILES: COC(=O)N(CC(=O)O)Cc1cc(OCc2nc(-c3ccc(Cl)cc3)oc2C)ccc1F
Activity (Syrian golden hamster [1]): 24%
Activity (Mus musculus [3]): 96%
IC50 [5]: > 80 µM
Activity (Syrian golden hamster [10]): Dose-dependent effect
Activity (Syrian golden hamster [14]): 74%
inhibition at 30 µM (hERG (KCNH2)): 4%
Activity (Mus musculus [18]): 58.1%
Activity [19]: -5.4%
Activity (Rhesus monkey [20]): Non-toxic
IC50 (Cytochrome P450 3A4): > 150 µM
Activity (Salmonella typhimurium [22]): Non-toxic
Activity (Mus musculus [23]): 109%
Activity (Mus musculus [25]): 23.5%
Activity (Rhesus monkey [26]): Non-toxic
IC50 (Cytochrome P450 2C9): > 150 µM
Activity (Mus musculus [31]): 747%
Activity (Salmonella typhimurium [32]): Non-toxic
Activity (Syrian golden hamster [33]): 67.5%
IC50 (Cytochrome P450 2D6 [34]): > 150 µM
